Measured values from patent publication EP0406958B1, “Positive inotropic and lusitropic 3,5-dihydroimidazo[2,1-b]quinazolin-2(1H)-one derivatives” (JANSSEN PHARMACEUTICA N.V., priority 1989, dated 1991).

Legend:
Human Platelet PDE IIIc = target: T1, Human Platelet PDE IIIc (Homo sapiens, UniProt Q14432); assay: Inhibition of phosphodiesterase type IIIc (3H-cAMP hydrolysis), human platelet enzyme; assay type: biochemical; conditions: pH 7.1, 1.2 µM 3H-cAMP, 10 min at 37°C; IC50 calculated graphically
T1 construct: canine heart and human platelet phosphodiesterase PDE IIIc; from tissue; host or cells: human platelets
Protocol: The incubation mixture (pH 7.1) (200 »l) contained 50mM 4-morpholinopropanesulfonic acid (MOPS), 1mM ethylenebis(oxyethylenenitrilo)tetraacetic acid (EGTA), 6 mM magnesium chloride, 0.25 mg/ml bovine serum albumin, 1.2 »M ³H-cAMP (310 mCi/mmole) and the phosphodiesterase type IIIc, and was prepared by dilution with water of a stock solution of MOPS, EGTA, MgCl₂, BSA and ³H-cAMP (50 »l) and 2 to 50 »l of a solution of phosphodiesterase type IIIc, depending on the enzymatic activity. […] When the effect of different compounds on phosphodiesterase activity was tested, the medium without cAMP was incubated with the compound(s) or its carrier (DMSO - 1% final concentration) for 5 min. The enzymatic reaction was started by addition of ³H-cAMP and stopped 10 min later after transferring the tubes in a waterbath at 100°C for 40 sec. After cooling to room temperature, alkaline phosphatase (0.25 »g/ml) was added and the mixture was left at room temperature for 20 min. The mixture was subsequently applied to a 1 ml DEAE-Sephadex A-25 column (pasteur pipet) and washed twice with 3 ml 20 mM Tris-HCl at pH 7.4. The ³H-labelled reaction products in the eluate were quantified by liquid scintillation counting. The inhibiting effect of the present compounds on canine heart and human platelet phosphodiesterase PDE IIIc was measured at different concentrations of the instant compounds. The IC₅₀ values were calculated graphically from the thus obtained inhibition values.

mongrel dogs [1] = assay: Haemodynamic variables in dogs after cumulative intravenous bolus administration; assay type: in vivo; conditions: maximum end-dose 0.16 mg kg-1 (comp. 14: 0.08 mg kg-1)
Protocol: Compound (9) was dissolved in 20% hydroxypropyl beta cyclodextrine ether slightly acidified with 1N HCl, in a concentration of 1mg.ml⁻¹ (pH 5.5). The experiments were performed on 7 mongrel dogs of either sex and varying age, ranging in body weight from 27 to 33 kg (median 30 kg). The animals were intravenously anaesthetized with a mixture of 0.015 mg.kg⁻¹ scopolamine and 0.05 mg.kg⁻¹ lofentanil. The animals were intubated with a cuffed endotracheal tube. Intermittent positive pressure ventilation was performed with a mixture of pressurized air and oxygen (60/40), using a volumecontrolled ventilator (Siemens Elema). In the control period the CO₂ concentration in the expired air (ET CO₂), as determined with a capnograph (Gould Godart), was kept at 5 vol% by adjustment of the respiratory volume (resp. rate = 20 breaths.min⁻¹). A continous intravenous infusion of 0.5 mg.kg⁻¹.h⁻¹ of etomidate was started immediately after induction. Body temperature was monitored with a thermistor positioned in the pulmonary artery. To prevent blood clotting heparine, 1000 IU.kg⁻¹ iv., was administered. The electrocardiogram (ECG) was derived from limb leads (standard lead 2). Left ventricular (LVP) and ascending aortic blood pressure (AoP) were measured by retrograde catheterisation via the femoral […] with high fidelity cathetertip micromanometers (Honeywell). The other femoral vein was cannulated for injection of saline at room temperature into the right atrium and for injection of compound (9). Peak ascending aortic blood flow velocity was measured through the right carotid artery with an electomagnetic catheter-tip probe connected to a square wave electomagnetic flow meter (Janssen Scientific Instruments). The following variables -inter alia- were calculated on-line, usually at 1 min intervals: heart rate (HR), diastolic (AoPd) aortic blood pressure, left ventricular end-diastolic pressure (LVEDP), the maximum positive and maximum negative rate of change of isovolumic LVP (LV dp/dt max and min, respectively), the maximum positive first derivative divided by the actually developed pressure in the left ventricle (LV dp/dtmax/Pd). The time constant (T) of relaxation was measured with the use of an exponential analysis that also estimated the asymptote. […] In the wash-out period the effects were followed for 75 min. […]

mongrel dogs [2] = assay: Positive inotropy and lusitropy, blood pressure and heart rate in anaesthetized dogs, slow intravenous infusion; assay type: in vivo; conditions: for cardiac output / heart rate: slow iv infusion over 120 min
Protocol: The positive inotropic and lusitropic effect of the instant compounds were assessed by an in vitro assay system to detect inhibiting effect on the phosphodiesterase type IIIc and in an in vivo experiment in closed-chest anaestetized dogs by monitoring cardiac and haemodynamic effects of an intravenous infusion of the instant compounds.
Compound (9) was dissolved in 20% hydroxypropyl beta cyclodextrine ether slightly acidified with 1N HCl, in a concentration of 1mg.ml⁻¹ (pH 5.5). The experiments were performed on 7 mongrel dogs of either sex and varying age, ranging in body weight from 27 to 33 kg (median 30 kg). The animals were intravenously anaesthetized with a mixture of 0.015 mg.kg⁻¹ scopolamine and 0.05 mg.kg⁻¹ lofentanil. The animals were intubated with a cuffed endotracheal tube. Intermittent positive pressure ventilation was performed with a mixture of pressurized air and oxygen (60/40), using a volumecontrolled ventilator (Siemens Elema). In the control period the CO₂ concentration in the expired air (ET CO₂), as determined with a capnograph (Gould Godart), was kept at 5 vol% by adjustment of the respiratory volume (resp. rate = 20 breaths.min⁻¹). A continous intravenous infusion of 0.5 mg.kg⁻¹.h⁻¹ of etomidate was started immediately after induction. Body temperature was monitored with a thermistor positioned in the pulmonary artery. To prevent blood clotting heparine, 1000 IU.kg⁻¹ iv., was administered. The electrocardiogram (ECG) was derived from limb leads (standard lead 2). Left ventricular (LVP) and ascending aortic blood pressure (AoP) were measured by retrograde catheterisation via the femoral […] with high fidelity cathetertip micromanometers (Honeywell). The other femoral vein was cannulated for injection of saline at room temperature into the right atrium and for injection of compound (9). Peak ascending aortic blood flow velocity was measured through the right carotid artery with an electomagnetic catheter-tip probe connected to a square wave electomagnetic flow meter (Janssen Scientific Instruments). The following variables -inter alia- were calculated on-line, usually at 1 min intervals: heart rate (HR), diastolic (AoPd) aortic blood pressure, left ventricular end-diastolic pressure (LVEDP), the maximum positive and maximum negative rate of change of isovolumic LVP (LV dp/dt max and min, respectively), the maximum positive first derivative divided by the actually developed pressure in the left ventricle (LV dp/dtmax/Pd). The time constant (T) of relaxation was measured with the use of an exponential analysis that also estimated the asymptote. After a recorded control period of 20 min the intravenous infusion of compound (9) was started at a rate of […]. In the wash-out period the effects were followed for 75 min. […] These positive inotropic and lusitropic, and vasodilatory effects of the compound (9) are long-lasting, since the changes in the variables last for more than 75 min after stopping the infusion of a total dose of 0.60 mg.kg⁻¹. […]

[3] = slow infusion (0.005 mg kg-1 min-1) for two hours

T1 sequence (Q14432 whole entry): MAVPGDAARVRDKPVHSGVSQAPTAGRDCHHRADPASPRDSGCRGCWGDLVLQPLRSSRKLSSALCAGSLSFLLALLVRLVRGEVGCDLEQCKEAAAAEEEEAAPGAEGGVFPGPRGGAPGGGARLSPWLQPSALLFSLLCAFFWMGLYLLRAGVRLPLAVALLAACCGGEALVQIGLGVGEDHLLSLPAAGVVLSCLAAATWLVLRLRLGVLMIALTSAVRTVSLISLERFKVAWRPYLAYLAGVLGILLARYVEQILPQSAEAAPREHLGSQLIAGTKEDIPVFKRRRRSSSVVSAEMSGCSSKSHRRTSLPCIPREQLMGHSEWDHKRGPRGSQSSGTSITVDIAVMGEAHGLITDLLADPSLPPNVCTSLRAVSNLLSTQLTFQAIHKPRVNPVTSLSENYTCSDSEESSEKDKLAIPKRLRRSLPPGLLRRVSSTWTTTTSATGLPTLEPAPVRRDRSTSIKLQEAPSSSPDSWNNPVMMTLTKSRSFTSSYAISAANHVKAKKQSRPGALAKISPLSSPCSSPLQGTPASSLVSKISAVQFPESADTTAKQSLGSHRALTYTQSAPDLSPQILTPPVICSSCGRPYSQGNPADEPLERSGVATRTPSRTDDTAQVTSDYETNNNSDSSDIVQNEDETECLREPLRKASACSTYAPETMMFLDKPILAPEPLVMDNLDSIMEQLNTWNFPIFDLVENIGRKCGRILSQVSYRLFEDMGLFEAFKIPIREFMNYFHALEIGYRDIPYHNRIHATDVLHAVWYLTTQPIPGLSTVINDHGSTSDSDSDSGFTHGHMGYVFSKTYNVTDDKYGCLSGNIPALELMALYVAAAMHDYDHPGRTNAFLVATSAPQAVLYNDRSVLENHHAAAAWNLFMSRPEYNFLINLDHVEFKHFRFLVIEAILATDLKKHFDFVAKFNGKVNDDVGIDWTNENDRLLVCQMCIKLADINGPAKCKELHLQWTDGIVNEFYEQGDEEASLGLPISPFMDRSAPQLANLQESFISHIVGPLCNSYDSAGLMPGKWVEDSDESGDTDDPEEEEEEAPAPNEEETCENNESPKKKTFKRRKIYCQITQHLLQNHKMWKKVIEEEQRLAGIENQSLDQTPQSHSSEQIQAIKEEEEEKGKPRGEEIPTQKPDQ

Row | SMILES | IC50 (Human Platelet PDE IIIc) [nM] | % changes in haemodynamic variables: AoPd (diastolic aortic blood pressure) (mongrel dogs [1]) [%] | % changes in haemodynamic variables: HR (heart rate) (mongrel dogs [1]) [%] | % changes in haemodynamic variables: LVdp/dtmax/Pd (positive inotropic effect) (mongrel dogs [1]) [%] | % changes in haemodynamic variables: T (time constant of relaxation, positive lusitropy) (mongrel dogs [1]) [%] | further results
1 | O=C1CN2Cc3cc(C(=NO)c4ccccc4)ccc3N=C2N1 [compound 2, (E+Z)-3,5-dihydro-7-[(hydroxyimino)phenylmethyl]imidazo[2,1-b]quinazolin-2(1H)-one] | 190 | -10 | 15 | 102 | -38 | –
2 | O=C1CN2Cc3cc(/C(=N/O)c4ccccc4)ccc3N=C2N1 [compound 3, (E)-3,5-dihydro-7-[(hydroxyimino)phenylmethyl]imidazo[2,1-b]quinazolin-2(1H)-one] | 190 | – | – | – | – | cardiac output (mongrel dogs [2]; anaesthetized mongrel dogs): increase in cardiac output; heart rate (mongrel dogs [2]; anaesthetized mongrel dogs): without changing the heart rate; cardiac inotropy and lusitropy (mongrel dogs [2]; [3]): dose-related increase; duration of effects after stopping the infusion (mongrel dogs [2]; [3]): more than 90 minutes; systemic vasodilation (mongrel dogs [2]; [3]): dose-related systemic vasodilation
3 | CCOC(=O)CON=C(c1ccccc1)c1ccc2c(c1)CN1CC(=O)NC1=N2 [compound 6] | 380 | -13 | 9 | 31 | -15 | –
4 | CN(C(=O)CON=C(c1ccccc1)c1ccc2c(c1)CN1CC(=O)NC1=N2)C1CCCCC1 [compound 8] | 58 | 0 | 0 | 29 | -45 | –
5 | CN(C(=O)CO/N=C(\c1ccccc1)c1ccc2c(c1)CN1CC(=O)NC1=N2)C1CCCCC1 [compound 9, (E)-N-cyclohexyl-N-methyl-2-[[[phenyl(1,2,3,5-tetrahydro-2-oxoimidazo[2,1-b]quinazolin-7-yl)methylene]amino]oxy]acetamide] | 25 | – | – | – | – | variables related to cardiac performance (LV dp/dtmax, LV dp/dtmax/Pd) (mongrel dogs [2]; 7 anaesthetized mongrel dogs, iv infusion over 120 min, starting after 10 min of infusion (0.05 mg.kg-1 total dose)): pronounced and significant increase; left ventricular end-diastolic pressure (preload) (mongrel dogs [2]; anaesthetized mongrel dogs, iv infusion over 120 min): no change or even a slight decrease; time constant of relaxation (mongrel dogs [2]; anaesthetized mongrel dogs, iv infusion, starting after 10 min of infusion (0.05 mg.kg-1 total dose)): significant decrease; Systemic and pulmonary peripheral vascular resistance (mongrel dogs [2]; anaesthetized mongrel dogs, iv infusion, starting after 20 min of infusion (0.10 mg.kg-1 total dose)): decrease significantly; cardiac output (mongrel dogs [2]; anaesthetized mongrel dogs): concomitant increase in cardiac output; heart rate (mongrel dogs [2]; anaesthetized mongrel dogs): no change in heart rate; duration of the changes in the variables after stopping the infusion (mongrel dogs [2]; positive inotropic, lusitropic and vasodilatory effects, total dose of 0.60 mg.kg-1): more than 75 min
6 | CN(C(=O)CO/N=C(/c1ccccc1)c1ccc2c(c1)CN1CC(=O)NC1=N2)C1CCCCC1 [compound 10, (Z)-N-cyclohexyl-N-methyl-2-[[[phenyl(1,2,3,5-tetrahydro-2-oxoimidazo[2,1-b]quinazolin-7-yl)methylene]amino]-oxy]acetamide] | 140 | -5 | 0 | 18 | -13 | –
7 | COc1ccc(C(=O)c2ccc3c(c2)CN2CC(=O)NC2=N3)cc1 [compound 12] | – | 0 | 10 | 57.5 | -10 | –
8 | COc1ccc(C(=NO)c2ccc3c(c2)CN2CC(=O)NC2=N3)cc1 [compound 13] | – | 0 | -10 | 45 | -27 | –
9 | O=C1CN2Cc3cc(C(=O)c4ccc(F)cc4)ccc3N=C2N1 [compound 14] | 520 | 0 | 5 | 35 | -16 | –
10 | COc1ccc(C(=O)c2ccc3c(c2)CN2CC(=O)NC2=N3)cc1OC [compound 24] | 340 | – | – | – | – | –
11 | CCOC(=O)C=C(c1ccccc1)c1ccc2c(c1)CN1CC(=O)NC1=N2 [compound 32] | 84 | – | – | – | – | –
